System: four of the readers
Experiment: ITC, reader domains taken together
Type: binding, human
Details: four of the five readers
Text: We investigated the thermodynamics of association of the H3KP4me3 peptide with five representative human reader domains containing either a PHD zinc finger or TTD, i.e. KDM5APHD3 (JARID1A-PHD3, residues M1489–V1641)[10], TAF3PHD (R857–K924)[22], BPTFPHD (L2583–N2751)[23], SGF29TTD (R115–K293)[24] and KDM4ATTD (JMJD2A, Q897-P1011)[25], selected on the basis of their preference for binding Ν^ε-trimethyllysine over other (non)methylation marks (Kme0 < Kme1 < Kme2 < Kme3), and their domain and aromatic cage diversity. The recombinant readers were produced in E. coli following reported procedures. Isothermal titration calorimetric (ITC) analyses were used to determine the dissociation constant (Kd), the Gibbs free energy of binding (ΔG°), the enthalpy of binding (ΔH°), and the entropy of binding (ΔS°). […] (Table 1, Fig. 2, Supplementary Fig. 1).
ITC studies followed a reported procedure. […] Histone peptide titrations were performed with the same reader batches. Solutions of the reader in buffer (25–40 µM) and of the histone H3 peptide (350–600 µM) in buffer were prepared. […] Heats of dilution for histone peptides determined in control experiments were subtracted from the titration binding data. Data were analysed with Origin 6.0 (Microcal Inc., Northampton, Massachusetts, USA) and curve fitting with one-site binding mode was applied.

Question: `C[C@H](N)C(=O)N[C@@H](CCCNC(=N)N)C(=O)N[C@H](C(=O)N[C@@H](CCCC[P+](C)(C)C)C(=O)N[C@@H](CCC(N)=O)C(=O)N[C@H](C(=O)N[C@@H](C)C(=O)N[C@@H](CCCNC(=N)N)C(=O)N[C@@H](CCCCN)C(=O)N[C@@H](CO)C(N)=O)[C@@H](C)O)[C@@H](C)O` [H3KP4me3] was tested. Which “binding relative to H3K4me3” value did it give?
Answer: stronger complex formation than with H3K4me3

— publication PMC7613515, “Reading and erasing of the phosphonium analogue of trimethyllysine by epigenetic proteins” (Communications Chemistry, 2022)
